Values after ≈ are worked out from the molar mass of the structure shown.

Data set [1] can be described thus: physchem. The settings on record: octan-1-ol/water.
Data set [2] in a line: physchem. The settings on record: pH 7.4 buffer.

In “physchem [1]” (pH 7.4), `Cc1cc(=O)oc2cc3c(cc12)CCCN3` registered a logD of 2.7. In the data set “physchem [2]”, the thermodynamic solubility came to 13.8 µM (≈ 2.97 µg/mL).
Take `Cc1cc2c(C)cc(=O)oc2c2c1NCCC2`: the logD in the data set “physchem [1]” (pH 7.4, LogD7.4) worked out at 2.9. The compound also showed a thermodynamic solubility in the data set “physchem [2]” of 30.9 µM (≈ 7.08 µg/mL).
Compound `Cc1ncc(-c2ccnc(Nc3ccc(F)cc3)n2)n1C(C)C` came in with a logD in “physchem [1]” (pH 7.4, LogD7.4) of 3.62. The same compound yielded a thermodynamic solubility in “physchem [2]” of 107 µM (≈ 33.4 µg/mL).
Consider `CCCCn1c(Cc2cc(OC)c(OC)c(OC)c2)nc2c(N)ncnc21`, for which, in “physchem [1]” (pH 7.4, LogD7.4), the logD was found to be 2.39. The same compound had a solubility (thermodynamic) in the data set “physchem [2]” of 85.1 µM (≈ 31.6 µg/mL).
Regarding `Cc1ccc(C(=O)Nc2ccon2)cc1-n1cnc2ccc(N3CCN(C)CC3)cc2c1=O`, the logD in “physchem [1]” (pH 7.4, LogD7.4) stood at 1.87. For the same compound, the solubility (thermodynamic) in “physchem [2]” is 57.5 µM (≈ 25.6 µg/mL).
For the compound `CCn1c(=O)c2[nH]c(-c3ccccc3)nc2n(CC)c1=O`, the log distribution coefficient (logD) in “physchem [1]” (pH 7.4, LogD7.4) was determined as 3.3. The thermodynamic solubility in “physchem [2]” is 2.1 µM (≈ 0.597 µg/mL).
Consider `CCCSc1nc(Oc2ccc(CC(=O)O)cc2)ccc1C(=O)NC1CCCCC1`, for which the logD in “physchem [1]” (pH 7.4, LogD7.4) came out at 1.79. The thermodynamic solubility in “physchem [2]” was 550 µM (≈ 235 µg/mL).
For `Cc1cc(CNc2nccc(Nc3cc(C)[nH]n3)n2)on1` the same measures were 1.86 and 813 µM (≈ 232 µg/mL).
For `C[C@H](NC1=NC(=O)C(C)(C(F)(F)F)S1)c1ccccc1F` (stereo partly specified) the same measures were 3.1 and 339 µM (≈ 109 µg/mL).
On the same counts, the results for `Cn1c(=O)c(Oc2ccc(F)cc2F)cc2cnc(NC3CCOCC3)nc21` [R-1487] are 2.76 and 20.4 µM (≈ 7.92 µg/mL).
The compound `O=C(Nc1ccccc1)c1ccc(OCCCN2CCCC2)cc1OCc1ccccc1F` had a logD in the data set “physchem [1]” (pH 7.4, LogD7.4) of 3.85. This compound showed a solubility (thermodynamic) in the data set “physchem [2]” of 141 µM (≈ 63.4 µg/mL).
For `C[C@@H]1CN(Cc2ccc(F)cc2)[C@@H](C)CN1C(=O)c1cc2c(C(=O)C(=O)N(C)C)cn(C)c2cc1Cl` [TALMAPIMOD], the logD in “physchem [1]” (pH 7.4) worked out at 3.6. Besides, in “physchem [2]”, the solubility (thermodynamic) worked out at 52.5 µM (≈ 26.9 µg/mL).
For `CS(=O)(=O)c1ccc([C@@H](CC2CCCC2)C(=O)Nc2cnc([C@H](O)CO)cn2)cc1Cl`, the logD in the data set “physchem [1]” (pH 7.4, LogD7.4) worked out at 2.58. The solubility (thermodynamic) in the data set “physchem [2]” amounted to 468 µM (≈ 219 µg/mL).
Compound `CSc1ccc(OCc2ccccc2)c(C(=O)Nc2ccc(C(=O)O)cn2)c1` came in with a logD in the data set “physchem [1]” (pH 7.4, LogD7.4) of 1.6. Also, the thermodynamic solubility in “physchem [2]” came out at 200 µM (≈ 78.7 µg/mL).
`O=C(c1scc2c1CCCC2)N1CCCCC1`: in the data set “physchem [1]” (pH 7.4, LogD7.4), the log distribution coefficient (logD) was 3.16. In the data set “physchem [2]”, the solubility (thermodynamic) came to 871 µM (≈ 217 µg/mL).
In “physchem [1]” (pH 7.4, LogD7.4), `Nc1nc(-c2ccc(Cl)cc2)cs1` had a logD of 3.31. The compound also showed a thermodynamic solubility in “physchem [2]” of 83.2 µM (≈ 17.5 µg/mL).
Compound `CCc1[nH]nc(NC(=O)Cc2ncc(Oc3ccnc4cc(OC)c(OC)cc34)cc2OC)c1C` returned a log distribution coefficient (logD) in the data set “physchem [1]” (pH 7.4, LogD7.4) of 2.79. Moreover, the thermodynamic solubility in the data set “physchem [2]” was determined as 37.2 µM (≈ 17.8 µg/mL).
In “physchem [1]” (pH 7.4, LogD7.4), `Nc1ccc2cccc(Nc3ncccn3)c2n1` displayed a logD of 2.7. Besides, in “physchem [2]”, the thermodynamic solubility came to 26.9 µM (≈ 6.38 µg/mL).
On to `Cc1cccc(C[C@H](NC(=O)c2cc(C(C)(C)C)nn2C)C(=O)NCC#N)c1`, for which the logD in the data set “physchem [1]” (pH 7.4, LogD7.4) worked out at 3.1. This compound also had a thermodynamic solubility in the data set “physchem [2]” of 63.1 µM (≈ 24.1 µg/mL).
For `Nc1nc(N)c(C(=O)Nc2ccccn2)nc1Cl` the same measures were 2.67 and 4.5 µM (≈ 1.19 µg/mL).
For `COc1cc2ncnc(NCc3ccccc3)c2cc1OC` the same measures were 3.29 and 38.9 µM (≈ 11.5 µg/mL).
In “physchem [1]” (pH 7.4, LogD7.4), `Nc1ncnc2c1nc(Sc1nc3cccc(Cl)c3s1)n2CCO` had a logD of 2.37. This compound also gave a thermodynamic solubility in the data set “physchem [2]” of 2 µM (≈ 0.758 µg/mL).
In the data set “physchem [1]” (pH 7.4, LogD7.4), `O=C(NCCCCc1ccccc1)c1ccccc1` showed a logD of 3.8. Further, the solubility (thermodynamic) in “physchem [2]” came to 52.5 µM (≈ 13.3 µg/mL).
Take `COc1cc2c(NC(=O)Nc3c(Cl)cccc3Cl)ncnc2cc1OCC1CCN(C)CC1`: the logD in the data set “physchem [1]” (pH 7.4, LogD7.4) was found to be 2.7. This compound also yielded a thermodynamic solubility in “physchem [2]” of 10 µM (≈ 4.9 µg/mL).
In the case of `Clc1ccc2c(c1Nc1ccnc(Nc3cc(N4CCOCC4)cc(N4CCOCC4)c3)n1)OCO2`, the logD in “physchem [1]” (pH 7.4, LogD7.4) was 3.25. The compound also gave a thermodynamic solubility in “physchem [2]” of 30.9 µM (≈ 15.8 µg/mL).
With `CN1CCN(S(=O)(=O)c2ccc(-c3cnc(N)c(C(=O)Nc4cccnc4)n3)cc2F)CC1`, the logD in “physchem [1]” (pH 7.4, LogD7.4) was 2.66. In addition, the solubility (thermodynamic) in “physchem [2]” came to 2.7 µM (≈ 1.27 µg/mL).
With `COc1ccc(CNCc2ccc(-c3cc(C(N)=O)c(NC(N)=O)s3)cc2)cc1`, the logD in the data set “physchem [1]” (pH 7.4, LogD7.4) is 2.55. In “physchem [2]”, the solubility (thermodynamic) worked out at 11.5 µM (≈ 4.72 µg/mL).
With `CCCc1c(C(=O)Nc2ccc(F)cc2C)cnn1-c1ccccc1`, the logD in the data set “physchem [1]” (pH 7.4, LogD7.4) came to 3.89. The compound also gave a thermodynamic solubility in “physchem [2]” of 3.1 µM (≈ 1.05 µg/mL).
`O=C(O)CC(=O)N[C@@H]1c2ccccc2C[C@H]1NC(=O)c1cc2sc(Cl)c(Cl)c2[nH]1` displayed a logD in “physchem [1]” (pH 7.4, LogD7.4) of 1.18. The compound further showed a solubility (thermodynamic) in the data set “physchem [2]” of 1170 µM (≈ 531 µg/mL).
`COc1ccc(-c2nc3n(c2Br)CCC3)cc1` yielded a logD in the data set “physchem [1]” (pH 7.4, LogD7.4) of 3.3. In addition, in the data set “physchem [2]”, the thermodynamic solubility worked out at 25.1 µM (≈ 7.36 µg/mL).
In the case of `O=C(c1ccc(Cl)cc1)C1CCN(C(=O)C2CC2)CC1`, the logD in the data set “physchem [1]” (pH 7.4, LogD7.4) worked out at 2.72. The thermodynamic solubility in the data set “physchem [2]” is 190 µM (≈ 55.6 µg/mL).
Regarding `CCS(=O)(=O)c1ccc(Oc2cc3nc(-c4ccccn4)[nH]c3cc2CN2C(=O)CCC2=O)cc1`, the logD in “physchem [1]” (pH 7.4, LogD7.4) worked out at 2. In “physchem [2]”, this compound displayed a thermodynamic solubility of 30.2 µM (≈ 14.8 µg/mL).
In the data set “physchem [1]” (pH 7.4, LogD7.4), `CC(C)OC(=O)N1CCC(Oc2ncnc3c2cnn3-c2ccc(S(C)(=O)=O)cc2F)CC1` returned a logD of 3. In “physchem [2]”, this compound yielded a thermodynamic solubility of 2.1 µM (≈ 1 µg/mL).
Take `CC(C)(C)Cn1c(CN2C(=O)CC3(CCNCC3)C2=O)cc2cnc(C#N)nc21`: the logD in “physchem [1]” (pH 7.4, LogD7.4) was 0.75. This compound returned a solubility (thermodynamic) in the data set “physchem [2]” of 575 µM (≈ 227 µg/mL).
In the data set “physchem [1]” (pH 7.4, LogD7.4), `O=C(Nc1ccccc1-c1ccccc1)OC1CCN(CCCCCCCCCNC[C@H](O)c2ccc(O)c3[nH]c(=O)ccc23)CC1` showed a logD of 2.16. The compound further registered a solubility (thermodynamic) in “physchem [2]” of 525 µM (≈ 336 µg/mL).
In the data set “physchem [1]” (pH 7.4, LogD7.4), `Cc1nc(C)c(-c2ccc([C@H]3CC[C@H](CC(=O)O)CC3)c(Cl)c2)nc1C(N)=O` gave a log distribution coefficient (logD) of 1.8. Besides, the thermodynamic solubility in the data set “physchem [2]” amounted to 209 µM (≈ 84 µg/mL).
Turning to `OCCNCc1cc(Br)ccc1OCc1ccc(Cl)cc1`, in the data set “physchem [1]” (pH 7.4, LogD7.4), the logD came out at 2.98. In “physchem [2]”, this compound gave a solubility (thermodynamic) of 229 µM (≈ 84.9 µg/mL).
Turning to `Cc1c(CCC(=O)O)c[nH]c1/C=C1\C(=O)Nc2ccccc21`, in “physchem [1]” (pH 7.4, LogD7.4), the logD was found to be 1.05. The thermodynamic solubility in “physchem [2]” was 209 µM (≈ 61.9 µg/mL).
For `COC[C@H](C)Oc1cc(Oc2cc(F)cc(F)c2)cc(C(=O)Nc2ccc(C(=O)O)cn2)c1` the same measures were 1.36 and 832 µM (≈ 381 µg/mL).
`Cc1cnc(NC(=O)Cc2ccccc2)s1` gave a logD in the data set “physchem [1]” (pH 7.4, LogD7.4) of 2.9. Also, the solubility (thermodynamic) in the data set “physchem [2]” amounted to 17 µM (≈ 3.95 µg/mL).
The compound `O=C(Nc1cccc(O)c1)c1ccc(OCCCN2CCCC2)cc1OCc1ccccc1` displayed a log distribution coefficient (logD) in “physchem [1]” (pH 7.4, LogD7.4) of 3.07. In the data set “physchem [2]”, the solubility (thermodynamic) was 6.6 µM (≈ 2.95 µg/mL).
In turn, `CNc1cccc(CCOc2ccc(C[C@H](NC(=O)c3c(Cl)cncc3Cl)C(=O)O)cc2)n1` registered a solubility (thermodynamic) in “physchem [2]” of 1350 µM (≈ 660 µg/mL).
On the same count and under the same terms, the figure for `CSc1nc(N)n2nc(-c3ccco3)nc2n1` is 151 µM (≈ 37.6 µg/mL); for `CN(c1ccnc(Nc2cc(N3CCOCC3)nc(N3CCOCC3)c2)n1)c1cccc2[nH]ncc12` it is 0.8 µM (≈ 0.39 µg/mL); for `CN1CCC(Oc2cccc3ncnc(Nc4ccc(OCc5cscn5)c(Cl)c4)c23)CC1` it is 4.9 µM (≈ 2.36 µg/mL).
On the same count and under the same terms, the figure for `Cc1cc(C)cc(-c2[nH]c3sc(C(C)(C)C(=O)N4C5CCC4CC5)cc3c2CCN2CCN(CC(O)CN3CCNCC3)CC2)c1` (stereo unspecified) is 427 µM (≈ 276 µg/mL); for `COc1cc(Nc2ncnc3[nH]nc(OCCN4CCC(O)CC4)c23)ccc1OCc1cccc(F)c1` it is 5.6 µM (≈ 2.85 µg/mL).
In the case of `COc1ccc2c(Oc3cnc(CC(=O)Nc4cn(C)nc4C)c(OC)c3)ccnc2c1`, in the data set “physchem [2]”, the solubility (thermodynamic) came to 15.1 µM (≈ 6.55 µg/mL).
In turn, `CC(C)(C)Cn1c2ccccc2c2cc(NC(=O)N3CCOCC3)ccc21` returned a thermodynamic solubility in “physchem [2]” of 0.1 µM (≈ 0.0365 µg/mL).
In turn, `Cc1nc(O)c2cc(-c3ccccc3)sc2n1` showed a thermodynamic solubility in “physchem [2]” of 1.8 µM (≈ 0.436 µg/mL).

By logD is commonly meant the decadic logarithm of the distribution of all forms, ionised or not, between an organic phase and buffer at a given pH. The solubility (thermodynamic) is the concentration in solution at equilibrium with solid.

The values above are taken from ChEMBL document CHEMBL3301361, “Experimental in vitro DMPK and physicochemical data on a set of publicly disclosed compounds”.
